The experiment deals with P388 leukemia ip, CD2F1 mice, survival T/C. In words: NCI In Vivo Anticancer Drug Screen. Data for tumor model P388 Leukemia (intraperitoneal) in CD2F1 (CDF1) mice. To be noted: endpoint: median survival time, higher = longer survival. Summed up: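 Mice carrying the transplanted tumor received test compound or vehicle. Survival was recorded in each group, and the value is the treated-group measurement divided by that of the vehicle-treated control group.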

[1] abbreviates: dose: 100.0 mg/kg/injection, schedule: Q01DX001 (ip), vehicle: saline with Tween-80.
Where [2] appears, read: dose: 200.0 mg/kg/injection, schedule: Q01DX001 (ip), vehicle: saline with Tween-80.
Where [3] appears, read: dose: 50.0 mg/kg/injection, schedule: Q01DX005 (ip), vehicle: saline.
Setting [4] is: dose: 100.0 mg/kg/injection, schedule: Q01DX005 (ip), vehicle: saline.
The mark [5] stands for this setting: dose: 200.0 mg/kg/injection, schedule: Q01DX005 (ip), vehicle: saline.
Where [6] appears, read: dose: 50.0 mg/kg/injection, schedule: Q01DX009 (ip), vehicle: saline.
The mark [7] stands for this setting: dose: 100.0 mg/kg/injection, schedule: Q01DX009 (ip), vehicle: saline.
The mark [8] stands for this setting: dose: 200.0 mg/kg/injection, schedule: Q01DX009 (ip), vehicle: saline.
[9] abbreviates: dose: 12.5 mg/kg/injection, schedule: Q01DX009 (ip), vehicle: saline.
Where [10] appears, read: dose: 25.0 mg/kg/injection, schedule: Q01DX009 (ip), vehicle: saline.

From PubChem BioAssay AID330 (DTP/NCI, 2004) come the findings set out here.

“And” between values parts separate entries of the source, which are not always exact repeats. Equal entries are not always repeated. Inconclusive results and toxic doses are left out. Peptide text beside a SMILES is read from it.

As for `[N-]=[N+]=C1N=CN=C1c1ncn[nH]1`, the T/C was 113 % of control (dose: 3.12 mg/kg/injection, schedule: Q01DX009 (ip), vehicle: Klucel (hydroxypropylcellulose) (HPC)); 150 % of control (dose: 12.5 mg/kg/injection, schedule: Q01DX009 (ip), vehicle: Klucel (hydroxypropylcellulose) (HPC)); 155 % of control (dose: 25.0 mg/kg/injection, schedule: Q01DX009 (ip), vehicle: Klucel (hydroxypropylcellulose) (HPC)); 160 % of control (dose: 50.0 mg/kg/injection, schedule: Q01DX009 (ip), vehicle: Klucel (hydroxypropylcellulose) (HPC)).

On to `CC(=O)C1=CCC2C3=CCC4=CC(O)[C@@H](O)C[C@]4(C)C3C[C@@H](O)[C@]12C` (stereo not given in full), for which the T/C reads like this: (dose: 0.94 mg/kg/injection, schedule: Q01DX005 (ip), vehicle: saline + alcohol) 100 % of control; (dose: 1.88 mg/kg/injection, schedule: Q01DX005 (ip), vehicle: saline + alcohol) 108 % of control; (dose: 3.75 mg/kg/injection, schedule: Q01DX005 (ip), vehicle: saline + alcohol) 108 % of control; (dose: 6.25 mg/kg/injection, schedule: Q01DX005 (ip), vehicle: saline + Tween-80 + alcohol) 100 % of control; (dose: 7.5 mg/kg/injection, schedule: Q01DX005 (ip), vehicle: saline + alcohol) 104 % of control; (dose: 12.5 mg/kg/injection, schedule: Q01DX005 (ip), vehicle: saline + Tween-80 + alcohol) 112 % of control. Besides, the T/C is 109 % of control (dose: 25.0 mg/kg/injection, schedule: Q01DX005 (ip), vehicle: saline + Tween-80 + alcohol) and 118 % of control (dose: 50.0 mg/kg/injection, schedule: Q01DX005 (ip), vehicle: saline + Tween-80 + alcohol).

Turning to `NC(Cc1ccccc1)C(=O)NCC(=O)NC(Cc1ccccc1)C(=O)NCC(=O)O` (stereo not given) (H-FGFG-OH; configuration not given here), the T/C was 96 % of control (dose: 50.0 mg/kg/injection, schedule: Q01DX005 (ip), vehicle: Klucel (hydroxypropylcellulose) (HPC)); 98 % of control (dose: 100.0 mg/kg/injection, schedule: Q01DX005 (ip), vehicle: Klucel (hydroxypropylcellulose) (HPC)); 102 % of control (dose: 200.0 mg/kg/injection, schedule: Q01DX005 (ip), vehicle: Klucel (hydroxypropylcellulose) (HPC)).

On to `CC1(C)C(N2CCOCC2)C(c2ccccc2)S1(=O)=O` (stereo not given), for which the T/C is, setting by setting: (dose: 50.0 mg/kg/injection, schedule: Q01DX001 (ip), vehicle: saline with Tween-80) 91 % of control; under setting [1], 100 % of control; under setting [2], 95 % of control.

For `COc1ccc2c(c1[N+](=O)[O-])CCCCC2=O`, the T/C is 104 % of control (dose: 100.0 mg/kg/injection, schedule: Q01DX009 (sc), vehicle: olive oil, sesame oil, peanut oil); 95 % of control (dose: 200.0 mg/kg/injection, schedule: Q01DX009 (sc), vehicle: olive oil, sesame oil, peanut oil); 107 % of control (dose: 400.0 mg/kg/injection, schedule: Q01DX009 (sc), vehicle: olive oil, sesame oil, peanut oil).

Regarding `CCCCCC(CN(C)C)C(=O)/C=C/c1ccc(OC)cc1` (stereo not given), the T/C reads like this: under setting [3], 101 % of control; under setting [4], 104 % of control; under setting [5], 96 % of control.

As to `COC1C(/C=[N+](\C)[O-])OC2OC(C)(C)OC21` (stereo not given), the T/C by setting is: under setting [3], 102 % of control; under setting [4], 100 % of control; under setting [5], 93 % of control.

Take `CCC[CH2][Sn]([Cl])([CH2]CCC)[S]C(=S)NCCNC(=S)[S][Sn]([Cl])([CH2]CCC)[CH2]CCC`: the T/C reads like this: (dose: 0.78 mg/kg/injection, schedule: Q01DX009 (ip), vehicle: Klucel (hydroxypropylcellulose) (HPC)) 93 % of control; (dose: 1.56 mg/kg/injection, schedule: Q01DX009 (ip), vehicle: Klucel (hydroxypropylcellulose) (HPC)) 98 % of control.

On to `CN1/C(=C2\C=CC=C\C2=N/S(=O)(=O)c2ccccc2)Sc2ccccc21`, for which the T/C is 104 % of control (dose: 100.0 mg/kg/injection, schedule: Q04DX003 (ip), vehicle: saline); 99 % of control (dose: 200.0 mg/kg/injection, schedule: Q04DX003 (ip), vehicle: saline); 94 % of control (dose: 400.0 mg/kg/injection, schedule: Q04DX003 (ip), vehicle: saline).

For the compound `CC(=O)CC(=O)Nc1ccc(Oc2ccccc2)cc1`, the T/C by setting is: (dose: 100.0 mg/kg/injection, schedule: Q04DX002 (ip), vehicle: Klucel (hydroxypropylcellulose) (HPC)) 100 % of control; (dose: 200.0 mg/kg/injection, schedule: Q04DX002 (ip), vehicle: Klucel (hydroxypropylcellulose) (HPC)) 97 % of control; (dose: 400.0 mg/kg/injection, schedule: Q04DX002 (ip), vehicle: Klucel (hydroxypropylcellulose) (HPC)) 96 % of control.

As for `CCCCCCCCCCCCCCCC(=O)OCC(COP(=O)(O)OCC(COC(=O)CCCCCCCCCCCCCCC)OC(=O)CCCCCCCCCCCCCCC)OC(=O)CCCCCCCCCCCCCCC` (stereo not given), the T/C was 98 % of control under setting [6], 100 % of control under setting [7] and 101 % of control under setting [8].

On to `Cc1ccc(C[N+](C)(C)C)cc1`, for which the T/C is, setting by setting: (dose: 12.5 mg/kg/injection, schedule: Q01DX009 (ip), vehicle: saline with Tween-80) 107 % of control; (dose: 25.0 mg/kg/injection, schedule: Q01DX009 (ip), vehicle: saline with Tween-80) 100 % of control; (dose: 50.0 mg/kg/injection, schedule: Q01DX009 (ip), vehicle: saline with Tween-80) 100 % of control and 106 % of control.

For the compound `CCN(CC)P(=O)(N1CC1)N1CC1`, the T/C is 169 % of control (dose: 6.25 mg/kg/injection, schedule: Q01DX009 (ip), vehicle: saline); 243 % of control under setting [9]; 175 % of control (dose: 12.5 mg/kg/injection, schedule: Q04DX003 (ip), vehicle: saline); 86 % of control under setting [10]; 245 % of control (dose: 25.0 mg/kg/injection, schedule: Q04DX003 (ip), vehicle: saline).

For `Cn1c(=O)c2snnc2n(C)c1=O`, the T/C was 107 % of control (dose: 100.0 mg/kg/injection, schedule: Q04DX003 (ip), vehicle: Klucel (hydroxypropylcellulose) (HPC)) and 104 % of control (dose: 200.0 mg/kg/injection, schedule: Q04DX003 (ip), vehicle: Klucel (hydroxypropylcellulose) (HPC)).

On to `COc1cc2c(cc1OC)CN1CCCC1C2` (stereo not given), for which the T/C runs as follows: (dose: 6.25 mg/kg/injection, schedule: Q01DX005 (ip), vehicle: saline with Tween-80) 97 % of control; (dose: 12.5 mg/kg/injection, schedule: Q01DX005 (ip), vehicle: saline with Tween-80) 108 % of control; (dose: 25.0 mg/kg/injection, schedule: Q01DX005 (ip), vehicle: saline with Tween-80) 101 % of control.

For the compound `C[CH2][Ge]([CH2]C)[CH2]C.C[CH2][Ge]([Cl])[CH2]C`, the T/C by setting is: under setting [6], 100 % of control; under setting [7], 100 % of control; under setting [8], 91 % of control.

Turning to `CC(=O)OC1COC(n2nnc3c(=O)[nH]cnc32)C(OC(C)=O)C1OC(C)=O` (stereo not given), the T/C was 103 % of control under setting [1]; 103 % of control under setting [2]; 103 % of control (dose: 400.0 mg/kg/injection, schedule: Q01DX001 (ip), vehicle: saline with Tween-80).

On to `OCCN1CCN(CC/C=C2/c3ccccc3Sc3ccc(C(F)(F)F)cc32)CC1`, for which the T/C is, setting by setting: (dose: 10.0 mg/kg/injection, schedule: Q04DX003 (ip), vehicle: saline) 115 % of control and 123 % of control; (dose: 20.0 mg/kg/injection, schedule: Q04DX003 (ip), vehicle: saline) 115 % of control; (dose: 80.0 mg/kg/injection, schedule: Q04DX003 (ip), vehicle: saline) 91 % of control.

With `O=NNc1nc(-c2cccnc2)nc2ccccc12`, the T/C was 112 % of control (dose: 1.25 mg/kg/injection, schedule: Q01DX009 (ip), vehicle: water); 110 % of control (dose: 2.5 mg/kg/injection, schedule: Q01DX009 (ip), vehicle: water); 111 % of control (dose: 5.0 mg/kg/injection, schedule: Q01DX009 (ip), vehicle: water); 100 % of control (dose: 10.0 mg/kg/injection, schedule: Q01DX009 (ip), vehicle: water).

`O=C(O)c1cc(Br)no1`: the T/C is 95 % of control under setting [6], 90 % of control under setting [7] and 89 % of control under setting [8].

Regarding `C[N+]12CC[N+](C)(CC1)CC2`, the T/C runs as follows: under setting [9], 101 % of control; under setting [10], 109 % of control; under setting [6], 115 % of control.
